Results on three compounds are retold here after PMC11650737, “Developing MYC Degraders Bearing the Von Hippel–Lindau Ligand to Target the “Undruggable” MYC” (ACS Pharmacology & Translational Science, 2024).

“Also recorded” adds a separate entry of the source.

One experiment concerns the target T1, c-MYC (Homo sapiens, UniProt P01106).
T1 construct: endogenous in cells; host or cells: PC3
As to the kind of experiment: MYC degradation in PC3 cells, Western blot. Format: cell-based. As for the experimental part: The ability of novel compounds to induce MYC degradation in the PC3 cell line was evaluated via a Western blot-based assay. […] A PROTAC that effectively degrades bromodomain and extra-terminal (BET) family proteins, with indirect action on MYC levels, BETd-260, was also included in these experiments as a positive control. BETd-260 was tested at a lower concentration (1 μΜ) due to its high potency.[26]
PC3 cells were used for the determination of MYC levels after treatment with the PROTACs under study. Cells (at a density of 250 000 per well) were seeded in 6-well plates for 24 h until 60% confluence. During the 24-h incubation period, cells were treated with the tested compounds (10 μΜ) and BETd-260 (1 μΜ) that was used as a positive control. For rescue experiments, cells were pretreated with the inhibitor MG-132 for 2 h, and then, the medium was removed, followed by the addition of the selected compound. After the 24-h incubation period, a cell lysis protocol was performed. The medium was removed, and the cells were rinsed with cold PBS. Lysis was induced using RIPA lysis buffer (50 mM Tris-HCl at pH 7.5, 150 mM NaCl, 5 mM Na2EDTA, 1 mM EGTA, 0.1% SDS, 1% NP-40, 0.5% sodium deoxycholate, 8 mM sodium fluoride, and 1 mM sodium orthovanadate) and protease inhibitor cocktail (Roche, UK). Total protein concentration in lysate samples was determined via performance of the Bradford assay in bovine serum albumin (BSA). Standard and unknown samples were preformulated in Coomassie blue G-250 assay reagent (Thermo Fisher Scientific, MA, USA), followed by a readout at 595 nm. Separation of the protein isolated from PC3 lysates, respectively (10 μg), with NuPAGE sample reducing agent and NuPAGE LDS sample buffer (Invitrogen, UK), was achieved via SDS-PAGE electrophoresis at 110 V for 2 h, prior to overnight transfer to the polyvinylidene difluoride (PVDF) membrane. The membranes were then blocked in 5% nonfat dry milk in Tris-buffered saline with 0.1% Tween-20 (TBST-T) for 1 h at room temperature.
Detection of MYC in PC3 cells was accomplished via immunoblot of the POI with the indicated monoclonal antibody (Cell Signaling Technology, MA, USA, catalog number #5605) at 1:1000 in TBST at […] overnight. The secondary anti-rabbit peroxidase-conjugate antibody (Cell Signaling Technology, MA, USA, catalog number #7074) was further added at 1:2000 dilution, followed by 1-h incubation at room temperature. Chemiluminescent visualization of the MYC protein bands was performed after the addition of Immobilon Crescendo Western HRP substrate (Sigma-Aldrich, Munich, Germany). For normalization of MYC concentration, GAPDH was labeled using the specific rabbit monoclonal antibody (Cell Signaling Technology, MA, USA, catalog number #5174) at 1:20000 in 5% nonfat dry milk. Protein bands were quantified with the ImageJ software.
For orientation: Immunoblotting shows a protein as a band on a membrane.

The subject of the next experiment is SKBR3 cells. The experiment can be described thus: Cell viability (MTT) assay, SKBR3. The format is cell-based, human. To be noted: Homo sapiens, SK-BR-3, 72 h, read-out: IC50 (antiproliferative effect). Here is the method:
The antiproliferative activity of the synthesized compounds was tested in cell viability assays optimally set up for various cancer cell lines (results are depicted in Table 2, n = 3, average IC50 (μM) ± SD).
Cells were plated at a density of 5 × 10^3 cells per well on 96-well plates. After 24 h of incubation (37 °C, 5% CO2), the cell medium was removed, and compounds were added at selected concentrations (0.1–100 μM), followed by incubation for 72 h. Control cells were treated with 0.4% DMSO medium to match the conditions in the wells where drugs were added. After 72 h, the medium was removed, and the 3-(4,5-dimethylthiazol-2-yl)-2,5-diphenyltetrazolium bromide (MTT) solution (0.3 mg/mL in PBS) was added to cells for 3 h under no light conditions. The MTT solution was removed, and the formazan crystals were dissolved in 100 μL of DMSO. The optical density was measured at 570 nm with a reference wavelength of 690 nm using an absorbance microplate reader (SpectraMax 190, Molecular Devices, Sunnyvale, CA, USA). The half-maximal inhibitory concentration (IC50) was calculated based on a four-parameter logistic equation, generating a cell viability curve, using GraphPad Prism 6.01 (GraphPad Software, Inc.). Two concentrations of an established drug, Docetaxel (100 nM and 1 nM), were used in each experiment as a positive control. The resulting absorbance values were used instead of IC50 calculation. Each point was the result of three independent experiments performed in triplicate.

The test system of another experiment is MYC:MAX complex. As to the kind of experiment: In vitro MYC-MAX binding assay (GST pull-down). Format: biochemical. To be noted: compound 150 μM. As for the experimental part:
To assess whether the new degraders affect direct interaction of MYC with MAX, we employed a pull-down approach using recombinant proteins that correspond to the bHLHZ regions of MYC and MAX. GST-MYC, bound to glutathione sepharose beads, was incubated with the pyrazole compounds, followed by incubation with His-MAX. Finally, the complex of GST-MYC/HisMAX was eluted by the addition of excess glutathione, while the amount of the eluted complex was assessed by western blotting using anti-MAX antibodies (Figure 5).
Figure 5 Inhibition of the formation of the MYC:MAX complex by the pyrazole compounds. The indicated compounds (150 μM), or the solvent alone (DMSO, used as a control), were incubated with GST-MYC containing glutathione beads for 10 min at […], followed by incubation with His-MAX. […] The complex of GST-MYC:His-MAX was eluted by incubation of the beads with free glutathione. The amount of the eluted complex was analyzed by western blotting (presented in the inset), using anti-MAX antibodies, while the protein bands were quantified with the ImageJ software. The intensity of the bands is presented in the bar graph. […] Statistics were based on the unpaired two-tailed student’s t-test. Data are shown as mean ± SEM.
MYC–MAX complex formation assays were performed using recombinantly produced GST-MYC and His-MAX proteins, following the glutathione GST pull-down principle (Lentzaris et al., in preparation). In this assay, recombinant GST-MYC bound to glutathione beads was preincubated with the indicated compound or vehicle […]. As a negative control, empty beads, i.e., not loaded with GST-MYC, were used. The formed complex was eluted with glutathione, while the amount of bound MAX (indicating the amount of the generated complex) was assessed by Western blotting using anti-MAX antibodies (Abcam) and quantified based on the image J free software. All assays were carried out at least three independent times.

T1 sequence (P01106 whole entry): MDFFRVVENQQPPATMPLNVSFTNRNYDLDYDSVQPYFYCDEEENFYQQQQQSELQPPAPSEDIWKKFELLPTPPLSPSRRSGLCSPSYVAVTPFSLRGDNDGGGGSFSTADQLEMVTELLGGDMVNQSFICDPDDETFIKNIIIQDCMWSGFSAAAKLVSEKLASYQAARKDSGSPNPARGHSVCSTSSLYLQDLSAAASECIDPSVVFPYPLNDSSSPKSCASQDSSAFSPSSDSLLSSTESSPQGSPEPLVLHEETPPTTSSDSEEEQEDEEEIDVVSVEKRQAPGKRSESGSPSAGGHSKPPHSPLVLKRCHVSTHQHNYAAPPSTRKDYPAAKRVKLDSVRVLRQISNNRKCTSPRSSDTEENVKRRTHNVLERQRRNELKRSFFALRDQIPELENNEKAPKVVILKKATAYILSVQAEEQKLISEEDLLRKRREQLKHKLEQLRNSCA

A word on the IC50: it is the concentration needed to halve the response being measured. Turning to `Cc1ncsc1-c1ccc(CNC(=O)[C@@H]2C[C@@H](O)CN2C(=O)[C@@H](NC(=O)CCCC(=O)NCCCOc2ccc(-c3cc(C(F)(F)F)nn3C)c(O)c2-c2cc(C(F)(F)F)cc(C(F)(F)F)c2)C(C)(C)C)cc1` [CSI107], the “dose dependence of MYC degradation” value on c-MYC (1–20 μΜ, 24 h) is given as “dose-dependent manner”. Besides, the “c-MYC degradation after short treatment” value on c-MYC (10 μΜ, 3 h) is reported as “effectively mediated c-MYC degradation”. Further, at c-MYC (10 μΜ, 24 h), the “MYC degradation (MYC levels by Western blot)” value was “significantly active”. For the same compound, at c-MYC (MG-132 10 μΜ 2 h, then compound 10 μΜ 24 h, versus control group), the “MYC levels after pretreatment with proteasome inhibitor MG-132” value is “no reduction in MYC levels”. For the same compound, the IC50 in the experiment on SKBR3 cells was 14 ± 2 µM. Further, the “inhibition of MYC:MAX complex formation (binding of His-MAX to GST-MYC)” value in the experiment with MYC:MAX complex was “inhibited the binding of HisMAX to MYC; also recorded: inhibits dimerization”.

With `Cc1ncsc1-c1ccc(CNC(=O)[C@@H]2C[C@@H](O)CN2C(=O)[C@@H](NC(=O)CCC(=O)NCCCOc2ccc(-c3cc(C(F)(F)F)nn3C)c(O)c2-c2cc(C(F)(F)F)cc(C(F)(F)F)c2)C(C)(C)C)cc1` [CSI86], in the experiment on SKBR3 cells, the IC50 was found to be 15 ± 4 µM. In addition, in the experiment on MYC:MAX complex, the “inhibition of MYC:MAX complex formation (binding of His-MAX to GST-MYC)” value is “no effect on MYC/MAX dimerization”.

`Cc1ncsc1-c1ccc(CNC(=O)[C@@H]2C[C@@H](O)CN2C(=O)[C@@H](NC(=O)COCCOCC(=O)NCCCOc2ccc(-c3cc(C(F)(F)F)nn3C)c(O)c2-c2cc(C(F)(F)F)cc(C(F)(F)F)c2)C(C)(C)C)cc1` [CSI135]: at c-MYC (10 μΜ, 24 h), the “MYC degradation (MYC levels by Western blot)” value is “No particular effect”.
